The results in this text go back to ChEMBL document CHEMBL1201862, “PubChem BioAssay data set” (2004).

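Each compound was tested at five concentrations against cells in 96-well plates for 48 hours. The concentration for 50% growth inhibition is given as GI50.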 Active and inactive are the calls of the source. Cut-off read from the data, not from the text of the source: active = GI50 up to about 1.1 µM and inactive = higher.

Test in all cases: growth of human tumour cells (NCI), 48 h
The test system of test [1] is 786-0.
Test [2] has as its system A498.
For test [3], the system named is ACHN.
For test [4], the system named is CCRF-CEM.
In test [5] the test system is EKVX.
For test [6], the system named is HCT-15.
For test [7], the system named is HT-29.
In test [8] the test system is MOLT-4.
Test [9] concerns NCI-H226.
For test [10], the system named is NCI-H460.
For test [11], the system named is NCI-H522.
The test system of test [12] is OVCAR-4.
For test [13], the system named is SF-295.
The subject of test [14] is SNB-19.
Test [15] deals with SW-620.
In test [16] the test system is U-251.
The test system of test [17] is UACC-257.
In test [18] the test system is UACC-62.
Test [19] relates to SR.

In the case of `O=C(C=P(c1ccccc1)(c1ccccc1)c1ccccc1)c1ccc(-c2cccs2)cc1`, the GI50 was 4.75 µM (inactive) in test [1]; 0.9 µM (active) in test [2]; 3.73 µM (inactive) in [3]; 4.56 µM (inactive) in [4]; 2.61 µM (inactive) in [5]; 6.61 µM in test [6]. Moreover, the GI50 in test [7] was 3.75 µM (inactive); in test [8] it was 2.15 µM (inactive); in [9], 2.86 µM (inactive); in test [10] it was 3.97 µM (inactive); in test [11], 3.35 µM (inactive); in test [12], 2.36 µM (inactive). Besides, the GI50 was 4.17 µM (inactive) in [13]; 2.96 µM (inactive) in test [14]; 4.33 µM (inactive) in test [15]; 3.85 µM (inactive) in test [16]; 1.8 µM (inactive) in test [17]; 1.64 µM (inactive) in test [18].

For the compound `OC(c1ccsc1)c1cc2ccccc2s1` (centres undefined), the GI50 in [1] is > 10 µM (inactive); in test [3], > 10 µM (inactive); in [4] it was > 10 µM (inactive); in test [5] it was > 10 µM (inactive); in test [6] it was greater than 10 µM; in [7] it was > 10 µM (inactive). The GI50 in test [8], in test [9], in test [10], in test [11], in test [12] and in [13] was > 10 µM (inactive) throughout. Also, the GI50 in [14], in [19], in test [15], in test [16], in test [17] and in [18] was > 10 µM (inactive) throughout.

With `CSc1nc2c(=O)n(-c3ccccc3)c(=S)n(-c3ccccc3)c2s1`, the GI50 is 25.9 µM (inactive) in test [1]; 45.4 µM (inactive) in test [3]; > 100 µM (inactive) in test [4]; greater than 100 µM in test [6]; > 100 µM (inactive) in test [7]; 63.2 µM (inactive) in test [8]. Further, the GI50 in [9] was 31.1 µM (inactive); in [10], > 100 µM (inactive); in test [11] it was > 100 µM (inactive); in [12], 71.4 µM (inactive); in test [13] it was 97.5 µM (inactive); in test [14], 14.2 µM (inactive). For the same compound, the GI50 in test [19] is > 100 µM (inactive); in test [15] it was > 100 µM (inactive); in [16] it was 38.5 µM (inactive); in [17], > 100 µM (inactive).

Regarding `OC(Cc1cc(CC(O)(C(F)(F)F)C(F)(F)F)nc(CC(O)(C(F)(F)F)C(F)(F)F)c1)(C(F)(F)F)C(F)(F)F`, the GI50 in test [1] is 1.35 µM (inactive); in test [2], 1.32 µM (inactive); in test [3] it was 0.681 µM (active); in test [4] it was > 10 µM (inactive); in [5], 2.07 µM (inactive); in test [6], 0.767 µM. Besides, the GI50 was 1.63 µM (inactive) in [7]; 3.85 µM (inactive) in [8]; 2.75 µM (inactive) in [9]; 0.358 µM (active) in test [10]; 3.06 µM (inactive) in [11]; 0.851 µM (active) in test [12]. The GI50 in test [13] was 0.509 µM (active); in test [14] it was 0.726 µM (active); in test [15], 0.574 µM (active); in test [16] it was 1 µM (active); in test [17], 2.05 µM (inactive); in [18], 0.337 µM (active).

As for `OC(c1ccc(F)cc1)(c1ccc(F)cc1)C1CC1`, the GI50 in test [1] is 29.2 µM (inactive); in [2] it was 29.2 µM (inactive); in test [3], 30.1 µM (inactive); in test [4] it was 24.8 µM (inactive); in test [5], 29.2 µM (inactive); in [6], 23 µM. For the same compound, the GI50 was 21.5 µM (inactive) in test [7]; 21.5 µM (inactive) in test [8]; 26.6 µM (inactive) in [9]; 29 µM (inactive) in test [10]; 21.2 µM (inactive) in [11]; 26.2 µM (inactive) in test [12]. For the same compound, the GI50 is 27.9 µM (inactive) in [13]; 42.8 µM (inactive) in [14]; 25.6 µM (inactive) in test [15]; 24 µM (inactive) in test [16]; 26 µM (inactive) in test [17]; 23.9 µM (inactive) in [18].

Regarding `CN(C)c1ccc(/C=C(\NC(=O)c2ccccc2)C(=O)NC(CCC(=O)O)C(=O)O)cc1` (centres undefined), the GI50 in [1] is > 100 µM (inactive); in [2] it was > 100 µM (inactive); in test [3], > 100 µM (inactive); in test [4], > 100 µM (inactive); in [5] it was > 100 µM (inactive); in test [6] it was greater than 100 µM. Moreover, the GI50 in test [7], in [8], in test [9], in test [10], in [11] and in test [12] was > 100 µM (inactive) in each case. Moreover, the GI50 in test [13], in test [14], in test [15], in test [16], in test [17] and in test [18] was > 100 µM (inactive) in each case.

Regarding `C=CCOC(=O)CC[N+]1=CCC(c2ccccc2)(c2ccccc2)O1`, the GI50 in test [1] is > 100 µM (inactive); in test [2], > 100 µM (inactive); in test [3], > 100 µM (inactive); in test [5], > 100 µM (inactive); in test [6], greater than 100 µM; in test [7], > 100 µM (inactive). Moreover, the GI50 in [8], in [9], in test [10], in test [11], in test [12] and in test [13] was > 100 µM (inactive) throughout. Moreover, the GI50 in test [14], in [15], in [16], in [17] and in test [18] was > 100 µM (inactive) throughout.

Take `CN1CCCC2[C@@H]3CCC4=C(O)C(=O)CC[C@]4(C)C3CC[C@@]21C` (some centres undefined): the GI50 is > 100 µM (inactive) in [1]; > 100 µM (inactive) in test [2]; > 100 µM (inactive) in [3]; > 100 µM (inactive) in test [4]; > 100 µM (inactive) in [5]; greater than 100 µM in test [6]. For the same compound, the GI50 in [7], in test [8], in test [9], in test [10], in [11] and in test [12] was > 100 µM (inactive) throughout. Further, the GI50 in test [13], in test [14], in [15], in [16], in test [17] and in test [18] was > 100 µM (inactive) each time.

In the case of `Cc1ccc(/C=C/C(=O)Oc2ccc(/C=C3\CCC/C(=C\c4ccc(OC(=O)/C=C/c5ccc(C)cc5)cc4)C3=O)cc2)cc1`, the GI50 in [1] was 16.7 µM (inactive); in test [3], 37.3 µM (inactive); in [4], 60.8 µM (inactive); in test [5] it was > 100 µM (inactive); in [6] it was greater than 100 µM; in test [7], > 100 µM (inactive). Moreover, the GI50 in test [8] is > 100 µM (inactive); in test [10], > 100 µM (inactive); in [11], > 100 µM (inactive); in [12], > 100 µM (inactive); in test [13], 25.1 µM (inactive); in test [14] it was 56.8 µM (inactive). The GI50 in test [19] was 27.5 µM (inactive); in [15] it was > 100 µM (inactive); in [16] it was 34 µM (inactive); in [17] it was > 100 µM (inactive); in [18], 74.1 µM (inactive).

For the compound `CCOC(=O)CCCSCCCC(=O)CCCSCCCC(=O)OCC`, the GI50 is > 100 µM (inactive) in test [1]; > 100 µM (inactive) in [4]; > 100 µM (inactive) in test [5]; greater than 100 µM in test [6]; > 100 µM (inactive) in test [7]; > 100 µM (inactive) in test [8]. For the same compound, the GI50 in [10], in test [11], in test [12], in test [13], in [14] and in [19] was > 100 µM (inactive) throughout. The GI50 in test [15], in test [16], in [17] and in test [18] was > 100 µM (inactive) in each case.

Take `CCOC(=O)N1CCC2C(=C(C)C(C)C3=C2C(=O)c2ccccc2C3=O)C1` (centres undefined): the GI50 in test [1] is 4.61 µM (inactive); in test [4] it was 9.44 µM (inactive); in test [5], > 10 µM (inactive); in [6], 3.88 µM; in test [7], 4.07 µM (inactive); in [8], 4.6 µM (inactive). Moreover, the GI50 was > 10 µM (inactive) in test [12]; 3.82 µM (inactive) in test [13]; 3.8 µM (inactive) in test [19]; 3.61 µM (inactive) in test [15]; 3.29 µM (inactive) in [17]; 4.41 µM (inactive) in test [18].

Regarding `Cc1[nH]n(-c2nc3c(c(=O)[nH]2)CCC3)c(=O)c1CCO`, the GI50 in [1] is > 100 µM (inactive); in [2] it was > 100 µM (inactive); in test [3], > 100 µM (inactive); in test [4] it was > 100 µM (inactive); in test [5], > 100 µM (inactive); in test [6], greater than 100 µM. Further, the GI50 in [7], in [8], in test [9], in test [10], in [11] and in test [12] was > 100 µM (inactive) in each case. Besides, the GI50 in [13], in test [14], in test [15], in test [16], in [17] and in test [18] was > 100 µM (inactive) throughout.
